Data as given in PMC3991719 (PLoS ONE, 2014).

How the values were obtained:
[1] = system: TSST-1 production by S. aureus MN8; assay type: cell-based, Staphylococcus aureus
S. aureus MN8 = assay type: cell-based, Staphylococcus aureus
L. crispatus = L. crispatus growth and culture pH, 9 h assay; assay type: cell-based, Lactobacillus crispatus; conditions: data not shown; for Alteration of L. crispatus media pH compared to untreated controls: broth cultures, pH meter; for Effect on L. crispatus growth (CFUs/ml): human normal vaginal isolate, 9 h assay, plate counts on Todd Hewitt agar
Procedure: Cultures of a human normal vaginal isolate of L. crispatus were subjected to the same 9 hour assay as used to determine peptide antimicrobial effects on S. aureus. CFUs/ml were determined by dilution plate counts on Todd Hewitt agar (BD). The pHs of overnight broth cultures were also determined with use of a standard pH meter.

S. aureus MNPE = assay type: cell-based, Staphylococcus aureus
[2] = system: α-toxin production by S. aureus MNPE; assay type: cell-based, Staphylococcus aureus
[3] = system: TSST-1 production by S. aureus MNPE; assay type: cell-based, Staphylococcus aureus
[4] = system: IL-8 production by HVECs exposed to S. aureus MN8; assay type: cell-based, human
[5] = system: human vaginal epithelial cells (HVECs)

| Substance | Lowest dose giving complete inhibition of TSST-1 production [1] [µg/mL] | Antimicrobial activity against S. aureus (S. aureus MN8) | Reduction of S. aureus growth (S. aureus MN8) [log] | Alteration of L. crispatus media pH compared to untreated controls (L. crispatus) | Effect on L. crispatus growth (CFUs/ml) (L. crispatus) | TSST-1 inhibition activity (in words) [1] | Effect on S. aureus MN8 growth (CFUs/ml) (S. aureus MN8) | Effect on S. aureus MNPE growth (S. aureus MNPE) | Inhibition of α-toxin production (in words) [2] | TSST-1 inhibition activity (in words) [3] | IL-8 production by HVECs incubated with MN8 and peptide [4] [pg/mL] | Cytotoxicity to HVECs [5] | Concentration at which inhibition of α-toxin production was shown [2] [µg/mL] |
| --- | --- | --- | --- | --- | --- | --- | --- | --- | --- | --- | --- | --- | --- |
| HNP-1: human defensin peptide purchased from Sigma-Aldrich | 0.005 | no antimicrobial activity was observed | 1 | – | – | – | – | – | – | – | – | – | – |
| HNP-2: human defensin peptide purchased from Sigma-Aldrich (CYCRIPACIAGERRYGTCIYQGRLWAFCC) | 0.005 | no antimicrobial activity was observed | 1 | – | – | – | – | – | – | – | – | – | – |
| Hbg-2: Hbg-1 peptide with scrambled sequence (STKPFFYFLHTQVKASPTSHDG) | – | – | – | nor was alteration in media pH observed | No inhibition of growth | comparably active as Hbg-1 | not antimicrobial at any concentration tested | – | – | – | – | – | – |
| SP-1: hemoglobin-like synthetic peptide, 0% positively-charged amino acids (SFPTTATYFPAFDLSAGSAQVA) | – | – | – | nor was alteration in media pH observed | No inhibition of growth | lacked antimicrobial (data not shown) and TSST-1 inhibition activity | lacked antimicrobial | lacked antimicrobial | no inhibition of α-toxin production | lacked antimicrobial (data not shown) and TSST-1 inhibition activity | – | – | – |
| SP-2: hemoglobin-like synthetic peptide, 50% positively-charged amino acids (SKPKKKTYKPHKDLSHGSAKKK) | – | – | – | nor was alteration in media pH observed | No inhibition of growth | showed the greatest TSST-1 inhibition activity | without affecting bacterial growth | without affecting bacterial growth | – | showed the greatest TSST-1 inhibition activity | 3.6 ± 7.2 | not cytotoxic | 0.005 |
